From paper PMC5681922, “Systemic Responses of Multidrug-Resistant Pseudomonas aeruginosa and Acinetobacter baumannii Following Exposure to the Antimicrobial Peptide Cathelicidin-BF Imply Multiple Intracellular Targets” (Frontiers in Cellular and Infection Microbiology, 2017) come the findings set out here.

Data set [1] has as its system 293FT (human embryonic kidney cells). The note with it: XTT, 24 h, serum-free DMEM. How it is done: (§1) Cell viability was measured using cell proliferation kit II (XTT) (Roche). Cells, including A549 (adenocarcinomic human alveolar basal epithelial cells), 293FT (human embryonic kidney cells) and L929 (murine fibroblast cells), were cultured in Dulbecco's […] (DMEM) supplemented with 10% fetal bovine serum, 100 U penicillin/mL, and 100 μg streptomycin/mL in a humidified 5% CO2 atmosphere at 37°C. After digestion with trypsin, the cells were diluted in serum-free DMEM without phenol red to a final concentration of 2 × 10^5 cell/mL, seeded in 96 well plates (100 μl/well) and cultured overnight until adhesion. Cathelicidin-BF dissolved in serum-free DMEM without phenol red was added to wells, and the plates were incubated for 24 h as previously described. Subsequent procedures were performed according to the kit. Briefly, XTT labeling reagent (sodium 3′-[1-(phenylaminocarbonyl)-3,4-tetrazolium]-bis-4-methoxy-6-nitro) benzene sulfonic acid hydrate) in Roswell Park Memorial Institute (RPMI) 1640 medium without phenol red was mixed with electron-coupling reagent PMS (N-methyl dibenzopyrazine methyl sulfate) at a volume ratio of 50:1 to make the working solution. Fifty microliters of the XTT labeling mixture was added to each well and incubated at the same conditions for 6 h. Absorbance [A492 nm-A690 nm] stands for the quantification of viable cells.
(§2) Figure 2 Cytotoxicity of cathelicidin-BF. Hemolysis and cell viability assays were conducted to test the cytotoxicity of cathelicidin-BF to mammalian cells.
(Tetrazolium assays rely on reduction of a dye to a coloured formazan, in cell work by metabolically active cells.)

Data set [2] has as its system A549 (adenocarcinomic human alveolar basal epithelial cells). The note with it: 400 mg/L; XTT, 24 h, serum-free DMEM. The protocol: as §1, §2
In data set [3] the test system is L929 (murine fibroblast cells). The settings on record: 400 mg/L; XTT, 24 h, serum-free DMEM. How it is done:
as §1, §2

Data set [4] deals with P. aeruginosa 1409. As to the kind of experiment: Membrane permeabilization assay (propidium iodide). Format: cell-based, Pseudomonas aeruginosa. The note with it: 1 h at 25°C in LB, then PI 10 μg/mL 30 min, fluorescence microscope. How it is done: Then, PI was added to a final concentration of 10 μg/mL. After 30 min of incubation at 25°C, the cells were washed 3 times with PBS and immediately imaged with a fluorescence microscope (Olympus, Japan) (Yu et al., [2015]).
Figure 3 Bacterial plasma membrane permeabilization assay of cathelicidin-BF. Cathelicidin-BF and levofloxacin were incubated with MDR P. aeruginosa in Luria-Bertani medium at final concentrations of 4 × MIC (minimal inhibitory concentration) or ¼ × MIC. After incubation at 25°C for 1 h, bacteria were collected by centrifugation at 3,000 × g for 5 min and resuspended with PBS. The DNA-binding fluorescent dye PI was added to a final concentration of 10 μg/mL. After 30 min incubation at 25°C, the cells were washed 3 times with PBS and immediately imaged using a fluorescence microscope.

The test system of data set [5] is P. aeruginosa 1409. Description: Minimal inhibitory concentration (given as multiples of MIC). Format: cell-based, Pseudomonas aeruginosa. The note with it: MDR clinical isolate; MIC itself not given, only this multiple.

No end group written: not given here.

For the sequence “KFFRKLKKSVKKRAKEFFKKPRVIGVSIPF [cathelicidin-BF]”, in data set [1], the “concentrations at which proliferation of 293FT cells was inhibited” value is > 50 µg/mL. In addition, the “effect on A549 cells” value in data set [2] was “intact”. For the same sequence, the “effect on L929 cells” value in data set [3] is “intact”. For the same sequence, the “integrity of bacterial membranes, PI staining at 4 × MIC” value in the data set with P. aeruginosa 1409 [4] (4 × MIC (cathelicidin-BF 32 μg/mL, levofloxacin 64 μg/mL)) was “showed red fluorescence”. Also, in the data set with P. aeruginosa 1409 [4] (¼ × MIC (cathelicidin-BF 2 μg/mL, levofloxacin 4 μg/mL)), the “integrity of bacterial membranes, PI staining at ¼ × MIC” value is on record as “no red dyes were detected”. For the same sequence, the “4 × MIC” value in the data set with P. aeruginosa 1409 [5] is 32 µg/mL.
